Measured values published in a melting point compilation (Tetko et al.; mined from patent text by program, amines drawn as free bases though some values may be those of a salt).

Q: With `CC(=O)OCc1cc2c(C(O)CN(Cc3ccccc3)C(C)(C)C)ccc(OCc3ccccc3)c2[nH]1` (stereo not drawn) as the compound, how does the melting point read?
A: 133 to 134 °C

Q: Which melting point does the source give for `Nc1ccc(Oc2ccc3sncc3c2)cc1` here?
A: 100 °C

Q: Which melting point does the source give for `O=c1c2cc(F)c(F)cc2n(CC2CC2)c(=O)n1OCc1ccccc1` here?
A: 121 to 123 °C

Q: For `COc1ccc(N2C=Cc3cc(S(N)(=O)=O)sc3S2(=O)=O)cc1`, which melting point is on record?
A: 90 to 92 °C

Q: With `Cc1ccccc1C(=O)Nc1ccc(-n2nc(C(F)(F)F)cc2C2CC2)c(F)c1` as the compound, how does the melting point read?
A: 142 to 144 °C

Q: With `Cc1ccc(N2C(=O)C(O)=C(C(=NOCC(=O)O)c3ccc(C(C)C)cc3)C2c2ccc(C(C)C)cc2)nn1` (stereo not drawn) as the compound, how does the melting point read?
A: 234 °C

Q: Which melting point does the source give for `O=C(NCC1CCN(c2cc3nc(C(=O)O)c(=O)[nH]c3cc2[N+](=O)[O-])C1)Nc1ccccc1` (stereo not drawn) here?
A: > 300 °C

Q: For `CCOC(=O)c1cn(CC)c2nc(C=O)c(O)cc2c1=O`, which melting point is on record?
A: 243 to 245 °C

Q: With `Cc1cccc2ncc(C(=O)Nc3ccc(Cl)cc3)c(=O)n12` as the compound, how does the melting point read?
A: 202 to 204 °C

Q: For `Cc1c(NC(=O)CC(CSC(=O)COc2ccccc2)c2ccccc2)cccc1C(=O)O` (stereo not drawn), which melting point is on record?
A: 130 to 132 °C

Q: With `Oc1c(C(Nc2ccc(C(F)(F)F)cc2)c2ccccn2)ccc2cccnc12` (stereo not drawn) as the compound, how does the melting point read?
A: 158 to 161 °C

Q: Which melting point does the source give for `CN1CCN(c2c(F)c(F)c([N+](=O)[O-])c(F)c2F)CC1` here?
A: 77 to 78 °C

Q: With `CCCNCC(O)COc1ccc2c(=O)cc(-c3ccccc3)oc2c1` (stereo not drawn) as the compound, how does the melting point read?
A: 145 to 147 °C

Q: For `COc1cc2ncnc(Nc3cccc(Br)c3)c2cc1O`, which melting point is on record?
A: 299 °C

Q: For `Cc1cc2nc3ccc(C(=O)O)cn3c(=O)c2s1`, which melting point is on record?
A: 338 to 340 °C

Q: For `COC(=O)Cn1c2c(c3ccccc3c1=O)C(=O)c1ccccc1-2`, which melting point is on record?
A: 248 to 251 °C

Q: Which melting point does the source give for `CCc1[nH]n(-c2c(Cl)cc(C(=O)O)cc2Cl)c2nc(Cc3ccc(OC)cc3)nc(=O)c1-2` here?
A: 277 °C

Q: With `CN1CCc2c(sc3c2C(=O)N(CCCl)CN3)C1` as the compound, how does the melting point read?
A: 159 to 161 °C

Q: With `CCCc1c(OCCCSc2ccc(C(=O)CCC(=O)O)c(F)c2)ccc(C(C)=O)c1O` as the compound, how does the melting point read?
A: 149 to 150 °C

Q: With `CN(C)C(=O)Sc1ccc(C(=O)c2cccc(C#N)c2)cc1` as the compound, how does the melting point read?
A: 150 °C

Q: For `CC(C)(C)OC(=O)c1cc(-c2cccc(F)c2)c(=O)n2c1-c1sccc1CC2`, which melting point is on record?
A: 135 to 137 °C

Q: For `COc1ccc(C2=NN(C3CCN(C(=O)[C@H](C)NC(=O)NC(C)(C)C)CC3)C(=O)[C@@H]3CC=CC[C@H]23)cc1OC`, which melting point is on record?
A: 153 to 154 °C

Q: With `Cc1c(NC(=O)CC(C)(C)C)c(C)c2c(c1-c1c[nH]cn1)OCC2c1ccc(C(C)C)cc1` (stereo not drawn) as the compound, how does the melting point read?
A: 277 to 279 °C

Q: With `O=C(O)C(O)=CC(=O)c1cn(Cc2ccccc2)c(=O)n(Cc2ccccc2)c1=O` as the compound, how does the melting point read?
A: 186 to 188 °C

Q: Which melting point does the source give for `CC(C)(C)C(NC(=O)c1cc(Cl)cc(Cl)c1)Nc1c(Nc2cncc(C(F)(F)F)c2)c(=O)c1=O` (stereo not drawn) here?
A: 233 to 234 °C

Q: For `CC(C)Cn1cc(F)c(=O)[nH]c1=O`, which melting point is on record?
A: 173 to 174 °C

Q: For `CCCC(=O)c1cc(C(=O)C(=O)OC(=O)C(=O)c2cc(C(=O)CCC)c(C)cc2NCC)c(NCC)cc1C`, which melting point is on record?
A: 141 to 143 °C

Q: For `CC(C)(OCc1cc2nc(Cl)ccc2n1S(=O)(=O)c1ccc2c(c1)CCO2)C(=O)O`, which melting point is on record?
A: 169 °C

Q: Which melting point does the source give for `CC(Cn1cc(Sc2ccccc2)c2ccccc21)N(O)C(N)=O` (stereo not drawn) here?
A: 73 to 76 °C

Q: Which melting point does the source give for `COc1ccc2[nH]c(CO)cc2c1C` here?
A: 133 to 135 °C

Q: Which melting point does the source give for `CCOC(=O)NNc1cccc(Cl)n1` here?
A: 139 to 141 °C

Q: With `CCOC(=O)[C@@H]1CCCN1C(=O)C1=Cc2ccccc2CC1` as the compound, how does the melting point read?
A: 55 to 57 °C

Q: For `C=C1C(=N)NC(=O)N1Cc1ccccc1`, which melting point is on record?
A: 225 °C

Q: With `COC(=O)c1cccc(-c2nc(-c3ccc(F)c(F)c3)cs2)c1` as the compound, how does the melting point read?
A: 147 to 148 °C

Q: For `C#CCc1cc(C(O)=S)cc(N)c1Oc1ccccc1`, which melting point is on record?
A: 167 to 168 °C

Q: With `O=C1NN=C(c2ccccc2)c2c[nH]c3cccc1c23` as the compound, how does the melting point read?
A: 177 to 179 °C

Q: Which melting point does the source give for `Cc1c(-c2ccc(N3CCOC3=O)cc2)nc2n1CCc1ccccc1C2OC1CCN(C)CC1` (stereo not drawn) here?
A: 214 °C

Q: Which melting point does the source give for `CC(C)(C)C(=O)Nc1ccncc1-c1n[nH]c2ccccc12` here?
A: 232 to 233 °C
